{"source": "patent US20260297031A1", "about": "“HYDROXYLAMINE-BASED BCR-ABL1 INHIBITORS FOR TREATMENT OF CANCER” (University of Georgia Research Foundation, Inc., priority 2023, published 2026)", "test": "MDCKII-MDR1 permeability", "settings": "dog, MDCK-MDR1, pH 7.4", "description": "MDCKII-MDR1 Permeability (Independently Performed By: Pharmaron Inc., Ninqbo, CN)\nTo each well of the Transwell insert and reservoir were added 50 μL and 25 mL of cell culture medium, respectively.\nTo determine the rate of drug transport in the apical to basolateral direction, 125 μL of the working solution of either test compounds or control compounds was added to the Transwell insert (apical compartment) and a 50 μL sample was immediately transferred from the apical compartment to 200 μL of acetonitrile containing internal standard (100 nM alprazolam, 200 nM caffeine, and 100 nM tolbutamide) in a new 96-well plate as the initial donor sample (A-B). The sample was then vortexed at 1,000 rpm for 10 min. The receiver plate (basolateral compartment) wells were then filled with 235 μL transport buffer. To determine the rate of drug transport in the basolateral to apical direction, 285 μL of the working solution of either test compounds or control compounds was added to the receiver plate (basolateral compartment) wells and a 50 μL of sample was immediately transferred from the basolateral compartment to 200 μL of acetonitrile containing internal standard in a new 96-well plate as the initial donor sample (B-A). The sample was vortexed for 10 min at 1,000 rpm. The Transwell insert (apical compartment) was then filled with 75 μL of transport buffer and the apical to basolateral direction and the basolateral to apical direction were done at the same time. […] After incubation, 50 μL samples from donor sides (apical compartment for Ap→BI flux, and basolateral compartment BI→Ap) and receiver sides (basolateral compartment for Ap→BI flux, and apical compartment for BI→Ap) were transferred to wells of a new 96-well plate, followed by the addition of 200 μL acetonitrile containing internal standard. […] An aliquot of 100 μL of the supernatant was mixed with an appropriate volume of ultra-pure water before LC-MS/MS analysis.\nTo monitor for monolayer integrity, Lucifer yellow leakage was determined after the 2 h transport period. This began by preparing a stock solution of Lucifer yellow in DMSO and diluted with HBSS (10 mM HEPES, pH 7.4.) to reach a final concentration of 100 μM. To each Transwell insert (apical compartment) was then added 100 μL of the Lucifer yellow solution, followed by filling the wells in the receiver plate (basolateral compartment) with 300 μL of HBSS (10 mM HEPES, pH 7.4).\nThe efflux ratio was determined using the following equation: […]", "data": [{"compound": "COc1cc(Nc2c(C#N)cnc3cc(OCCON4CCN(C)CC4)c(OC)cc23)c(F)cc1Cl", "note": "[Compound 15, 4-((4-chloro-2-fluoro-5-methoxyphenyl)amino)-6-methoxy-7-(2-((4-methylpiperazin-1-yl)oxy)ethoxy)quinoline-3-carbonitrile]", "values": [{"measurement": "Papp A→B at 2 h, 1 µM", "result": 0.7, "unit": "×10⁻⁶ cm/s"}, {"measurement": "Papp B→A at 2 h, 1 µM", "result": 19.3, "unit": "×10⁻⁶ cm/s"}, {"measurement": "efflux ratio at 1 µM", "result": 26.5}]}]}
